Columns and labels:
[1] = time to dissolve artesunate powder in aqueous base solution to a clear solution; type: physicochemical; conditions: 10 mg of artesunate with 5% sodium bicarbonate solution
Method: The formulation was prepared prior to use by: providing artesunate; providing a solution comprising an organic base; and adding the solution to artesunate to provide the formulation. For example, the injectable formulation of the present disclosure was prepared by mixing artesunate with an aqueous solution containing a base described herein. Without wishing to be bound by theory, artesunate becomes negatively charged and dissolved. The formulation is freshly prepared immediately before use to minimize instability. In some embodiments, the injectable formulation is prepared by adding a solution of the disclosed bases to artesunate powder. The solution is about 5% glucose, normal saline, or about 5% glucose saline solution. Then the mixture is mixed gently to provide a clear injectable solution.
The formulation of the present disclosure is very convenient to prepare.

[2] = in vivo; cited from earlier work
[3] = cited from earlier work
[4] = cited from earlier work; remark: listed apart in the source

C[C@H]1[C@H](OC(=O)CCC(=O)O)O[C@@H]2O[C@@]3(C)CC[C@H]4[C@H](C)CC[C@@H]1[C@@]24OO3 [artesunate]
time needed to dissolve [1]: five to seven
plasma half-life [2]: about 20 minutes
stability under basic and acidic conditions [3]: unstable
solubility in organic solvents ([4]; organic solvents, such as acetone and methanol): soluble
solubility in water ([4]; water): slightly soluble

From patent US12083096B2, “Composition containing artesunate” (priority 2016, dated 2024)
